According to paper PMC10778198, “First-in-Human Dose-Escalation Study of the Novel Oral Depsipeptide Class I-Targeting HDAC Inhibitor Bocodepsin (OKI-179) in Patients with Advanced Solid Tumors” (Cancers, 2023):

Test system: patients with advanced solid tumors
Experiment: phase I dose escalation: safety, DLT, MTD, RP2D (CTCAE v. 5)
Assay type: in vivo
Description: Subsequent dosing cohorts were enrolled using a standard 3 + 3 design.
If any patient in any cohort of three patients developed a DLT during cycle 1, an additional three patients were recruited to expand the cohort to up to six evaluable patients. If two or more patients in any expanded cohort developed a DLT, this dose was considered non-tolerated, and dose escalation was discontinued. The MTD was defined as the highest dose level for which no more than one of six patients experienced a DLT.
Patients were continuously evaluated for adverse events throughout the study using the Common Terminology Criteria of Adverse Events (CTCAE v. 5). The patients underwent a clinical history and physical examination, an ECOG PS, a complete blood count (CBCs), chemistry, coagulation studies, urinalysis, a serum pregnancy test (as applicable), a triplicate ECG, an ophthalmology examination, and baseline tumor assessment at screening. During cycle 1, weekly history and physical examination, CBC, chemistry, coagulation parameters, urinalysis, and triplicate ECGs were performed; in subsequent cycles, weekly labs were limited to a CBC. Repeat ophthalmology examinations were performed at cycle 3, day 1, and at the end of treatment. Repeat tumor assessment was performed every 2 cycles (6 weeks) in accordance with RECIST 1.1.

[1] = 4:3 intermittent dosing schedule, all grades

CC(C)[C@H](N)C(=O)SCC/C=C/[C@@H]1CC(=O)NCc2nc(cs2)C(=O)NC(C)(C)C(=O)N[C@@H](C(C)C)C(=O)O1 [OKI-179, Bocodepsin]
TEAE: Hypokalaemia (4:3, 350 mg (n = 3), G3): 0 n (%)
TEAE: Muscular weakness (4:3, 350 mg (n = 3), G3): 0 n (%)
TEAE: Nasal congestion (4:3, 350 mg (n = 3), G3): 0 n (%)
TEAE: Nausea (4:3, 350 mg (n = 3), G3): 0 n (%)
TEAE: Platelet count decreased (4:3, 350 mg (n = 3), G3): 0 n (%)
TEAE: Proteinuria (4:3, 350 mg (n = 3), G3): 0 n (%)
TEAE: Pyrexia (4:3, 350 mg (n = 3), G3): 0 n (%)
TEAE: Vomiting (4:3, 350 mg (n = 3), G3): 0 n (%)
TEAE: Weight decreased (4:3, 350 mg (n = 3), G3): 0 n (%)
TEAE: Anemia (4:3, 450 mg (n = 6), G1): 0 n (%)
TEAE: Back pain (4:3, 450 mg (n = 6), G1): 2 (33) n (%)
TEAE: Cough (4:3, 450 mg (n = 6), G1): 1 (17) n (%)
TEAE: Decreased appetite (4:3, 450 mg (n = 6), G1): 1 (17) n (%)
TEAE: Diarrhea (4:3, 450 mg (n = 6), G1): 0 n (%)
TEAE: Dyspnea (4:3, 450 mg (n = 6), G1): 0 n (%)
TEAE: ECG QT prolonged (4:3, 450 mg (n = 6), G1): 1 (17) n (%)
TEAE: Fatigue (4:3, 450 mg (n = 6), G1): 0 n (%)
TEAE: Headache (4:3, 450 mg (n = 6), G1): 1 (17) n (%)
TEAE: Hypokalaemia (4:3, 450 mg (n = 6), G1): 0 n (%)
TEAE: Muscular weakness (4:3, 450 mg (n = 6), G1): 0 n (%)
TEAE: Nausea (4:3, 450 mg (n = 6), G1): 2 (33) n (%)
TEAE: Platelet count decreased (4:3, 450 mg (n = 6), G1): 1 (17) n (%)
TEAE: Proteinuria (4:3, 450 mg (n = 6), G1): 0 n (%)
TEAE: Pyrexia (4:3, 450 mg (n = 6), G1): 1 (17) n (%)
TEAE: Vomiting (4:3, 450 mg (n = 6), G1): 1 (17) n (%)
TEAE: Weight decreased (4:3, 450 mg (n = 6), G1): 1 (17) n (%)
TEAE: Anemia (4:3, 450 mg (n = 6), G2): 0 n (%)
TEAE: Back pain (4:3, 450 mg (n = 6), G2): 0 n (%)
TEAE: Cough (4:3, 450 mg (n = 6), G2): 0 n (%)
TEAE: Decreased appetite (4:3, 450 mg (n = 6), G2): 1 (17) n (%)
TEAE: Diarrhea (4:3, 450 mg (n = 6), G2): 0 n (%)
TEAE: Dyspnea (4:3, 450 mg (n = 6), G2): 0 n (%)
TEAE: ECG QT prolonged (4:3, 450 mg (n = 6), G2): 0 n (%)
TEAE: Fatigue (4:3, 450 mg (n = 6), G2): 0 n (%)
TEAE: Headache (4:3, 450 mg (n = 6), G2): 0 n (%)
TEAE: Hypokalaemia (4:3, 450 mg (n = 6), G2): 1 (17) n (%)
TEAE: Muscular weakness (4:3, 450 mg (n = 6), G2): 0 n (%)
TEAE: Nasal congestion (4:3, 450 mg (n = 6), G2): 0 n (%)
TEAE: Nausea (4:3, 450 mg (n = 6), G2): 3 (50) n (%)
TEAE: Platelet count decreased (4:3, 450 mg (n = 6), G2): 2 (33) n (%)
TEAE: Proteinuria (4:3, 450 mg (n = 6), G2): 3 (50) n (%)
TEAE: Pyrexia (4:3, 450 mg (n = 6), G2): 0 n (%)
TEAE: Vomiting (4:3, 450 mg (n = 6), G2): 0 n (%)
TEAE: Weight decreased (4:3, 450 mg (n = 6), G2): 0 n (%)
TEAE: Anemia (4:3, 450 mg (n = 6), G3): 2 (33) n (%)
TEAE: Back pain (4:3, 450 mg (n = 6), G3): 0 n (%)
TEAE: Cough (4:3, 450 mg (n = 6), G3): 0 n (%)
TEAE: Decreased appetite (4:3, 450 mg (n = 6), G3): 0 n (%)
TEAE: Diarrhea (4:3, 450 mg (n = 6), G3): 0 n (%)
TEAE: Dyspnea (4:3, 450 mg (n = 6), G3): 0 n (%)
TEAE: ECG QT prolonged (4:3, 450 mg (n = 6), G3): 1 (17) n (%)
TEAE: Fatigue (4:3, 450 mg (n = 6), G3): 1 (17) n (%)
TEAE: Headache (4:3, 450 mg (n = 6), G3): 0 n (%)
TEAE: Hypokalaemia (4:3, 450 mg (n = 6), G3): 0 n (%)
TEAE: Muscular weakness (4:3, 450 mg (n = 6), G3): 1 (17) n (%)
TEAE: Nasal congestion (4:3, 450 mg (n = 6), G3): 0 n (%)
TEAE: Nausea (4:3, 450 mg (n = 6), G3): 0 n (%)
TEAE: Platelet count decreased (4:3, 450 mg (n = 6), G3): 0 n (%)
TEAE: Proteinuria (4:3, 450 mg (n = 6), G3): 0 n (%)
TEAE: Pyrexia (4:3, 450 mg (n = 6), G3): 0 n (%)
TEAE: Vomiting (4:3, 450 mg (n = 6), G3): 0 n (%)
TEAE: Weight decreased (4:3, 450 mg (n = 6), G3): 0 n (%)
TEAE: Anemia [1]: 40%
TEAE: Diarrhea [1]: 25%
TEAE: Fatigue [1]: 40%
TEAE: Nausea [1]: 63%
TEAE: Vomiting [1]: 30%
TEAE: anorexia [1]: 35%
TEAE: decreased platelet count [1]: 30%
grade 3 TEAE: anemia (4:3 schedule): 25%
grade 3 TEAE: fatigue (4:3 schedule): 15%
grade 3 TEAE: prolonged QT (4:3 schedule): 15%
grade 1 or 2 nausea (4:3 schedule, 450 mg): 83%
TEAE: Abdominal pain (5:2, 300 mg (N=6), All grades): 1 (17) N (%)
TEAE: Anemia (5:2, 300 mg (N=6), All grades): 2 (33) N (%)
